Key:
[1] = biological target: T1, purified recombinant human GAC (GLS1) (Homo sapiens, UniProt O94925); assay: GLS1 Enzymatic Activity Assay (dual-coupled enzymatic assay); assay type: biochemical
T1 sequence (O94925 55-598 isoform O94925-3 limits assumed): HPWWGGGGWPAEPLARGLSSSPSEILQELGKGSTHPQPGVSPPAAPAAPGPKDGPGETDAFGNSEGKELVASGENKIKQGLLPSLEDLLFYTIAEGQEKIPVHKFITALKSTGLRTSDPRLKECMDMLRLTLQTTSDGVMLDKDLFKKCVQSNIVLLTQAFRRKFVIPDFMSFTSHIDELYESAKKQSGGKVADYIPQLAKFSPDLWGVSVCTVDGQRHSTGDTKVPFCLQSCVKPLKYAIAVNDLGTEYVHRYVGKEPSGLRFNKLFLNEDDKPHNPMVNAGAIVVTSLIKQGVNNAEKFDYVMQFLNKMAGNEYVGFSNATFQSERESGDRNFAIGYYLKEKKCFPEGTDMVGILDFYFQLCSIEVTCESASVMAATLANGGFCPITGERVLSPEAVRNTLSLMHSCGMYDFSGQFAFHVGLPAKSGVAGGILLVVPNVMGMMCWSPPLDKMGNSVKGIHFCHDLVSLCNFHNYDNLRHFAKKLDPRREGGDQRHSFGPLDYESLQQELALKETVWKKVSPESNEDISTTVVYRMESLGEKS
Outline: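 In this coupled fluorometric format, phosphate-activated GAC (2 nM, 50 mM phosphate) is pre-exposed to compound for 10 min before 1 mM glutamine addition. Product is tracked as resorufin (530/590 nm) over time or at 20 min, and potency is derived by logistic fitting.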

[2] = test system: A549 cells; assay: Proliferation Assay (A549 cell viability, Cell Titer Fluor); assay type: cell-based; settings: Homo sapiens, 72 hours
Outline: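 1000 A549 cells/well, RPMI 1640/10% dialyzed FBS, 24 h attach; compound 72 h, 0.5% DMSO, 37 °C/5% CO2; Cell Titer Fluor fluorescence; EC50 via 4-parameter logistic.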

| Structure (SMILES) | IC50 [1] [µM] | EC50 [2] [µM] |
| --- | --- | --- |
| O=C(NCc1cc(OC(F)(F)F)ccc1F)c1cn(CCCCc2cc3cc(C4CCN(C(=O)CC(F)(F)F)CC4)[nH]c3nn2)nn1 [Example 157, N-{[2-fluoro-5-(trifluoromethoxy)phenyl]methyl)-1-(4-{6-[1-(3,3,3-trifluoropropanoyl)piperidin-4-yl]-7H-pyrrolo[2,3-c]pyridazin-3-yl}butyl)-1H-1,2,3-triazole-4-carboxamide] | < 0.1 | 0.1 to 0.5 |
| CNC(=O)c1cccc(-c2c(C3CC3)[nH]c3nnc(CCCCn4cc(C(=O)NCc5ccc(C)nc5)nn4)cc23)c1 [Example 158, 1-(4-{6-cyclopropyl-5-[3-(methylcarbamoyl)phenyl]-7H-pyrrolo[2,3-c]pyridazin-3-yl}butyl)-N-[(6-methylpyridin-3-yl)methyl]-1H-1,2,3-triazole-4-carboxamide] | < 0.1 | 0.5 to 5 |
| Cc1ccc(CNC(=O)c2cn(CCCCc3cc4c(-c5cccc(CNS(C)(=O)=O)c5)c(C5CC5)[nH]c4nn3)nn2)cn1 [Example 159, 1-(4-{6-cyclopropyl-5-[3-(methanesulfonamidomethyl)phenyl]-7H-pyrrolo[2,3-c]pyridazin-3-yl}butyl)-N-[(6-methylpyridin-3-yl)methyl]-1H-1,2,3-triazole-4-carboxamide] | < 0.1 | 0.5 to 5 |
| Cc1ccc(CNC(=O)c2cn(CCCCc3cc4c(-c5cccc(C(C)(C)O)c5)c(C5CC5)[nH]c4nn3)nn2)cn1 [Example 160, 1-(4-{6-cyclopropyl-5-[3-(2-hydroxypropan-2-yl)phenyl]-7H-pyrrolo[2,3-c]pyridazin-3-yl}butyl)-N-[(6-mcthylpyridin-3-yl)methyl]-1H-1,2,3-triazole-4-carboxamide] | < 0.1 | 0.1 to 0.5 |
| CC(C)(O)c1ccc(CNC(=O)c2cn(CCCCc3cc4c(-c5ccc(F)cc5F)c(C5CC5)[nH]c4nn3)nn2)cn1 [Example 161, 1-{4-[6-cyclopropyl-5-(2,4-difluorophenyl)-7H-pyrrolo[2,3-c]pyridazin-3-yl]butyl}-N-{[6-(2-hydroxypropan-2-yl)pyridin-3-yl]methyl}-1H-1,2,3-triazole-4-carboxamide] | < 0.1 | 0.1 to 0.5 |
| CC(C)(O)c1ccc(CNC(=O)c2cn(CCCCc3cc4c(-c5ccc(C(F)(F)F)cc5)c(C5CC5)[nH]c4nn3)nn2)cn1 [Example 162, 1-(4-{6-cyclopropyl-5-[4-(trifluoromethyl)phenyl]-7H-pyrrolo[2,3-c]pyridazin-3-yl}butyl)-N-{[6-(2-hydroxypropan-2-yl)pyridin-3-yl]methyl}-1H-1,2,3-triazole-4-carboxamide] | < 0.1 | 0.1 to 0.5 |
| Cc1ccc(CNC(=O)c2cn(CCCCc3cc4c(-c5ccc(C(F)(F)F)cc5)c(C5CC5)[nH]c4nn3)nn2)cn1 [Example 163, 1-(4-{6-cyclopropyl-5-[4-(trifluoromethyl)phenyl]-7H-pyrrolo[2,3-c]pyridazin-3-yl}butyl)-N-[(6-methylpyridin-3-yl)methyl]-1H-1,2,3-triazole-4-carboxamide] | < 0.1 | 0.1 to 0.5 |
| CC(C)(O)c1ccc(CNC(=O)c2cn(CCCCc3cc4c(-c5ccc(OC(F)(F)F)cc5)c(C5CC5)[nH]c4nn3)nn2)cn1 [Example 164, 1-(4-{6-cyclopropyl-5-[4-(trifluoromethoxy)phenyl]-7H-pyrrolo[2,3-c]pyridazin-3-yl}butyl)-N-{[6-(2-hydroxypropan-2-yl)pyridin-3-yl]methyl}-1H-1,2,3-triazole-4-carboxamide] | < 0.1 | 0.1 to 0.5 |
| Cc1ccc(CNC(=O)c2cn(CCCCc3cc4c(-c5ccc(OC(F)(F)F)cc5)c(C5CC5)[nH]c4nn3)nn2)cn1 [Example 165, 1-(4-{6-cyclopropyl-5-[4-(trifluoromethoxy)phenyl]-7H-pyrrolo[2,3-c]pyridazin-3-yl}butyl)-N-[(6-methylpyridin-3-yl)methyl]-1H-1,2,3-triazole-4-carboxamide] | < 0.1 | 0.1 to 0.5 |
| CC(C)(O)c1ccc(CNC(=O)c2cn(CCCCc3cc4c(-c5cccc(C(F)(F)F)c5)c(C5CC5)[nH]c4nn3)nn2)cn1 [Example 166, 1-(4-{6-cyclopropyl-5-[3-(trifluoromethyl)phenyl]-7H-pyrrolo[2,3-c]pyridazin-3-yl}butyl)-N-{[6-(2-hydroxypropan-2-yl)pyridin-3-yl]methyl}-1H-1,2,3-triazole-4-carboxamide] | < 0.1 | 0.1 to 0.5 |
| Cc1ccc(CNC(=O)c2cn(CCCCc3cc4c(-c5cccc(C(F)(F)F)c5)c(C5CC5)[nH]c4nn3)nn2)cn1 [Example 167, 1-(4-{6-cyclopropyl-5-[3-(trifluoromethyl)phenyl]-7H-pyrrolo[2,3-c]pyridazin-3-yl}butyl)-N-[(6-methylpyridin-3-yl)methyl]-1H-1,2,3-triazole-4-carboxamide] | < 0.1 | 0.1 to 0.5 |
| COc1ncc(-c2c(C3CC3)[nH]c3nnc(CCCCn4cc(C(=O)NCc5ccc(C)nc5)nn4)cc23)c(OC)n1 [Example 168, 1-{4-[6-cyclopropyl-5-(2,4-dimethoxypyrimidin-5-yl)-7H-pyrrolo[2,3-c]pyridazin-3-yl]butyl}-N-[(6-methylpyridin-3-yl)methyl]-1H-1,2,3-triazole-4-carboxamide] | < 0.1 | 0.5 to 5 |

The remaining lines, values ahead:

| IC50 [1] [µM] | EC50 [2] [µM] | Structure (SMILES) |
| --- | --- | --- |
| < 0.1 | 0.1 to 0.5 | CC(C)(O)c1ccc(CNC(=O)c2cn(CCCCc3cc4c(-c5cccc(OC(F)(F)F)c5)c(C5CC5)[nH]c4nn3)nn2)cn1 [Example 169, 1-(4-{6-cyclopropyl-5-[3-(trifluoromethoxy)phenyl]-7H-pyrrolo[2,3-c]pyridazin-3-yl}butyl)-N-{[6-(2-hydroxypropan-2-yl)pyridin-3-yl]methyl}-1H-1,2,3-triazole-4-carboxamide] |
| < 0.1 | 0.1 to 0.5 | Cc1ccc(CNC(=O)c2cn(CCCCc3cc4c(-c5cccc(OC(F)(F)F)c5)c(C5CC5)[nH]c4nn3)nn2)cn1 [Example 170, 1-(4-{6-cyclopropyl-5-[3-(trifluoromethoxy)phenyl]-7H-pyrrolo[2,3-c]pyridazin-3-yl}butyl)-N-[(6-methylpyridin-3-yl)methyl]-1H-1,2,3-triazole-4-carboxamide] |
| < 0.1 | < 0.1 | CC(C)(O)c1ccc(CNC(=O)c2cn(CCCCc3cc4c(-c5ccoc5)c(C5CC5)[nH]c4nn3)nn2)cn1 [Example 171, 1-{4-[6-cyclopropyl-5-(furan-3-yl)-7H-pyrrolo[2,3-c]pyridazin-3-yl]butyl}-N-{[6-(2-hydroxypropan-2-yl)pyridin-3-yl]methyl}-1H-1,2,3-triazole-4-carboxamide] |
| < 0.1 | < 0.1 | Cc1ccc(CNC(=O)c2cn(CCCCc3cc4c(-c5ccoc5)c(C5CC5)[nH]c4nn3)nn2)cn1 [Example 172, 1-{4-[6-cyclopropyl-5-(furan-3-yl)-7H-pyrrolo[2,3-c]pyridazin-3-yl]butyl}-N-[(6-methylpyridin-3-yl)methyl]-1H-1,2,3-triazole-4-carboxamide] |
| < 0.1 | 0.1 to 0.5 | COc1ncc(-c2c(C3CC3)[nH]c3nnc(CCCCn4cc(C(=O)NCc5cccc(OC(F)(F)F)c5)nn4)cc23)c(OC)n1 [Example 173, 1-{4-[6-cyclopropyl-5-(2,4-dimethoxypyrimidin-5-yl)-7H-pyrrolo[2,3-c]pyridazin-3-yl]butyl}-N-{[3-(trifluoromethoxy)phenyl]methyl}-1H-1,2,3-triazole-4-carboxamide] |
| < 0.1 | 0.1 to 0.5 | CC(C)(O)c1ccc(CNC(=O)c2cn(CCCCc3cc4c(C5CC5)c(-c5ccccc5F)[nH]c4nn3)nn2)cn1 [Example 174, 1-{4-[5-cyclopropyl-6-(2-fluorophenyl)-7H-pyrrolo[2,3-c]pyridazin-3-yl]butyl}-N-{[6-(2-hydroxypropan-2-yl)pyridin-3-yl]methyl}-1H-1,2,3-triazole-4-carboxamide] |
| < 0.1 | 0.5 to 5 | O=C(NCc1cccc(OC(F)(F)F)c1)c1cn(CCCCc2cc3c(-c4ccccn4)c(-c4ccccc4F)[nH]c3nn2)nn1 [Example 175, 1-{4-[6-(2-fluorophenyl)-5-(pyridin-2-yl)-7H-pyrrolo[2,3-c]pyridazin-3-yl]butyl}-N-{[3-(trifluoromethoxy)phenyl]methyl}-1H-1,2,3-triazole-4-carboxamide] |
| < 0.1 | 0.1 to 0.5 | COc1cccc(-c2cc3cc(CCCCn4cc(C(=O)NCc5ccc(C)nc5)nn4)nnc3[nH]2)c1 [Example 176, 1-{4-[6-(3-methoxyphenyl)-7H-pyrrolo[2,3-c]pyridazin-3-yl]butyl}-N-[(6-methylpyridin-3-yl)methyl]-1H-1,2,3-triazole-4-carboxamide] |
| < 0.1 | 0.5 to 5 | O=C(NCc1cccc(OC(F)(F)F)c1)c1cn(CCCCc2cc3c(C4CC4)c(-c4ccccn4)[nH]c3nn2)nn1 [Example 177, 1-(4-(5-cyclopropyl-6-(pyridin-2-yl)-7H-pyrrolo[2,3-c]pyridazin-3-yl)butyl)-N-(3-(trifluoromethoxy)benzyl)-1H-1,2,3-triazole-4-carboxamide 2,2,2-trifluoroacetate] |

Source: patent publication US20160002248A1, “GLS1 INHIBITORS FOR TREATING DISEASE” (Board of Regents, The University of Texas System, priority 2014, published 2016)
